Data published in US8080644B2, “Oligonucleotide analogues” (Exiqon A/S, priority 1997, dated 2011).

Columns and labels:
[1] = target: exonuclease free Klenow fragment DNA polymerase I (EFK) (Escherichia coli, UniProt P00582, D355A/E357A); settings: 500 μM LNA NTP, 2 units EFK, 37° C., 3 min
Protocol: A primer extension assay was used to evaluate the LNA NTP's (see Example 123), ribonucleotides, as substrates for exonuclease free Klenow fragment DNA polymerase I (EFK). The assay used a ^33P 5′ end labelled 15mer primer hybridised to one of four different 24mer templates. The sequences of the primer and templates are (LNA monomer in bold):
One picomole ^33P labelled primer was hybridised to 2 picomoles of template in ×2 Klenow buffer. To this was added either 4 μM dNTPαS or 500 μM LNA NTP or a mixture of 4 μM dNTPαS and 500 μM LNA NTP. Two units of EFK DNA polymerase was added to each reaction. 2 mU inorganic pyrophosphatase was added to each of the reactions. Primer plus template plus enzyme controls were also carried out. All reactions were carried out in a total volume of 20 μl. The reactions were incubated at 37° C. for 3 min. Reactions were then stopped by the addition of 10 μl formamide EDTA stop solution. Reaction products were separated on a 19% polyacrylamide 7M urea gel and the product fragments sized by comparison with a ^33P labelled 8 to 32 base oligonucleotide ladder after exposure to Kodak Biomax autoradiography film.

[2] = target: terminal deoxynucleotidyl transferase (TdT) (Bos taurus, UniProt P06526); experiment: Oligonucleotide tailing reaction with triphosphate as substrate; format: biochemical; settings: 15mer primer, 25 U TdT, 32, 64 or 128 μM triphosphate, 90 min, 37° C.
Protocol: LNA-thymidine-5'-triphosphate (LNA-TTP) as a substrate for terminal deoxynucleotidyl transferase (TdT). In order to test the ability of the triphosphate of LNA-TTP (Example 123) to be accepted by terminal deoxynucleotidyl transferase as a substrate, an oligonucleotide tailing reaction was performed. A 15mer primer (sequence: [NT] ID NO:14) and a mixture of 8 to 32 base oligonucleotide markers were 5' end labelled with [γ^33P] ATP and T4 polynucleotide kinase. Reactions were boiled for 5 min after labelling to remove any PNK activity. Four picomoles of the labelled primer, 25 U terminal deoxynucleotidyl transferase and 32, 64 or 128 μM dTTP or LNA-TTP were incubated in 25 μl 100 mM cacodylate buffer pH 7.2, 2 mM CoCl2 and 0.2 mM 2-mercaptoethanol for 90 min at 37° C. […] Autoradiography using Biomax film was carried out on the dry gel.

[3] = tested on: MCF-7 human breast cancer cells
[4] = tested on: Nras amplicons (Nras 910, Nras 600, Nras 200); experiment: Capture of Nras PCR amplicons by immobilised probes; format: binding, human; settings: native amplicons; 1 pmol probe per well
Protocol: Three DIG labelled amplicons from Nras sequence (ref.: Nucleic Acid Research, 1985, Vol. 13, No. 14, p 52-55) were generated by PCR amplification as follows:
PCR reaction mixture for Nras amplicons: 2.3 μl human placental genomic DNA (440 ng/μl), 50 μl 10×PCR buffer (without MgCl2 Perkin Elmer), 30 μl 25 mM MgCl2, 50 μl dNTP-mix (2 mM dATP, dCTP, dGTP and 1.8 mM dTTP), 10 μl 1 mM Dig-11-dUTP, 10 μl 25 μM forward primer, 10 μl 25 μM reverse primer, 5 μl 5 U/μl AmpliTaq Gold (Perkin Elmer) and water ad 500 μl. PCR reaction: The above mixture was made for all the Nras PCR products. The only difference being reverse primer 910 bp, 600 bp or 200 bp added once at a time. The PCR mixtures were aliquoted into ten PCR tubes each and cycled in a Perkin Elmer 9600 at the following conditions: 95° C. 3 min; 55° C. 2 min, 72° C. 3 min, 95° C. 1 min (30 cycles); 55° C. 2 min, 72° C. 10 min and 4° C. soak. 10 μl from each PCR reaction was analysed on a standard agarose gel and the expected fragments of approximately 910 bp, 600 bp and 200 bp were observed. Assay conditions: Wells of a streptavidin coated micro-titer plate (Boehringer Mannheim; binding capacity of 20 pmol biotin per well) were incubated for 1 hour in 5×SSCT (0.75 M NaCl, 75 mM citrate, pH 7.0, 0.1% Tween 20) at 37° C. with either 1 pmol of DNA Nras Cap A (biotin-5′-TTCCACAGCACAA-3′) (SEQ ID NO:37), LNA/DNA Nras Cap A (biotin-5′-TTCCACAGCACAA-3′) (SEQ ID NO:38), LNA Nras Cap A (biotin-5′-TTCCACAGCACAA-3′) (SEQ ID NO:39), DNA Nras Cap B (biotin-5′-AGAGCCGATAACA-3′) (SEQ ID NO:40), LNA/DNA Nras Cap B (biotin-5′-AGAGCCGATAACA-3′) (SEQ ID NO:41) or LNA Nras Cap B (biotin-5′-AGAGCCGATAACA-3′) (SEQ ID NO:42); LNA nucleosides in bold. The Nras Cap A capture probes capture amplicons Nras 910, Nras 600 and Nras 200. Nras Cap B capture probes capture specific amplicons Nras 910 and Nras 600. After incubation with the different capture probes, the wells were washed in 5×SSCT and 5 μl native or denatured (95° C. 5 min and 10 min on ice) DIG-labelled amplicons (Nras 910, Nras 600 or Nras 200) in 95 μl 1×SSCT (0.15 M NaCl, 15 mM citrate, pH 7.0, 0.1% Tween 20) were added per well and incubated for 1 hour at 37° C. The wells were washed three times in phosphate buffered saline (1×PBST, 0.15 M Nat, pH 7.2, 0.05% Tween 20) and incubated 30 min at 37° C. with 200 μl peroxidase labelled anti-DIG antibodies (Boehringer Mannheim, diluted 1:1000 in 1×PBST). Finally the wells were washed three times in 1×PBST and assayed for peroxidase activity by adding 100 μl of substrate solution (0.1 M citrate-phosphate buffer pH 5.0, 0.66 mg/ml ortho-phenylenediamine dihydrochloride, 0.012% H2O2) the reaction was stopped after 9 min by adding 100 μl 0.5 M H2SO4 and diluted 4 times in H2SO4 before the absorbance at 492 nm was read in a micro-titer plate reader. […] We conclude that LNA modified oligos containing mixed LNA nucleosides (A, T, G or C LNA nucleosides) function efficiently in sequence specific capture of PCR amplicons when immobilised on a solid surface. We further conclude that LNA offers a means to construct capture probes that will function efficiently in amplicon capture without prior denaturation i.e. capture by strand displacement. This ability facilitates a significant simplification of current amplicon detection formats based on DNA.

Exonuclease III = Exonuclease III (Escherichia coli, UniProt P09030)

## Nc1ncnc2c1ncn2[C@@H]1O[C@@]2(COP(=O)(O)OP(=O)(O)OP(=O)(O)O)CO[C@@H]1[C@@H]2O [LNA ATP]
[1]
  incorporation into a DNA strand: efficiently incorporated to give the +1 product

## Nc1ccn([C@@H]2O[C@@]3(COP(=O)(O)OP(=O)(O)OP(=O)(O)O)CO[C@@H]2[C@@H]3O)c(=O)n1 [LNA CTP]
[1]
  incorporation into a DNA strand: efficiently incorporated to give the +1 product on Template 4

## Nc1nc2c(ncn2[C@@H]2O[C@@]3(COP(=O)(O)OP(=O)(O)OP(=O)(O)O)CO[C@@H]2[C@@H]3O)c(=O)[nH]1 [LNA GTP]
[1]
  incorporation into a DNA strand: able to produce the +1 product with efficient extension of the primer

## O=c1ccn([C@@H]2O[C@@]3(COP(=O)(O)OP(=O)(O)OP(=O)(O)O)CO[C@@H]2[C@@H]3O)c(=O)[nH]1 [LNA UTP]
[1]
  incorporation into a DNA strand: specifically incorporated as a “T”

## Cc1cn(C2OC3(COP(=O)(O)OP(=O)(O)OP(=O)(O)O)COC2C3O)c(=O)[nH]c1=O (centres unmarked) [LNA-TTP, LNA-thymidine-5′-triphosphate]
[2]
  fraction of +1 product extended by a further base: ~50%
  primer extension product: extended by one base

## Cc1cn([C@H]2C[C@H](O)[C@@H](COP(=O)(O)OP(=O)(O)OP(=O)(O)O)O2)c(=O)[nH]c1=O [dTTP, reference compound]
[2]
  primer extension product: greater than 100 nucleotides

## AL17: LNA oligo 5′-d(ATA AAG TGT AAA G)-3′ (SEQ ID NO:58); also fluorescein/FITC-labelled (DNA ATAAAGTGTAAAG; LNA-containing, positions not given here, fluorescein label)
[3]
  added radioactivity associated with cellular material: approximately 0.4%

## DNA Nras Cap A: biotin-5′-TTCCACAGCACAA-3′ (SEQ ID NO:37), DNA capture probe (DNA, 5' {Biotin}, backbone not given here) [reference compound]
[4]
  capture of specific amplicons without prior denaturation: do not capture the specific amplicons at all

## DNA Nras Cap B: biotin-5′-AGAGCCGATAACA-3′ (SEQ ID NO:40), DNA capture probe (DNA, 5' {Biotin}, backbone not given here) [reference compound]
[4]
  capture of specific amplicons without prior denaturation: do not capture the specific amplicons at all

## LNA Cap B: biotin-5′-AGAGCCGATAACA-3′ (SEQ ID NO:42), spiked with 12 LNA nucleosides (12 LNA nucleosides, positions not given here, 5' biotin)
[4]
  capture of specific amplicons without prior denaturation: capture very efficiently the specific amplicons without prior denaturation

## LNA Nras Cap A: biotin-5′-TTCCACAGCACAA-3′ (SEQ ID NO:39), spiked with 12 LNA nucleosides (LNA nucleosides spiked in, positions not given here, 5' biotin)
[4]
  capture of specific amplicons without prior denaturation: capture very efficiently the specific amplicons without prior denaturation

## LNA/DNA Nras Cap A: biotin-5′-TTCCACAGCACAA-3′ (SEQ ID NO:38), spiked with 4 LNA nucleosides (LNA nucleosides spiked in, positions not given here, 5' biotin)
[4]
  capture of specific amplicons without prior denaturation: capture the same amplicons with a lower efficiency

## LNA/DNA Nras Cap B: biotin-5′-AGAGCCGATAACA-3′ (SEQ ID NO:41), spiked with 4 LNA nucleosides (LNA nucleosides spiked in, positions not given here, 5' biotin)
[4]
  capture of specific amplicons without prior denaturation: capture the same amplicons with a lower efficiency

## ODN#10: oligodeoxynucleotide (SEQ ID NO:56), a 35-mer complementary to human Cathepsin D (DNA TTAACGTAGGTGCTGGACTTGTCGCTGTTGTACTT; DNA, backbone and methylation of C not given here) [reference compound]
[3]
  added radioactivity associated with cellular material: approximately 1.4%

## P2: 5′-GC ATG TGC TGG AGA T-3′ (SEQ ID NO: 11), DNA primer (DNA GCATGTGCTGGAGAT; DNA, backbone and methylation of C not given here) [reference compound]
Exonuclease III; 10 Units Exonuclease III, 37° C., 5 min, primer hybridised to template
  full length product left after the 5 minute incubation: 20%
Exonuclease III; in the absence of the enzyme
  full length band, % of the signal: 99%
